Measured values as given in patent US10705094B2, “TNF receptor signaling modulator assay” (UCB Biopharma SRL, priority 2015, dated 2020).

Experiments:
[1] = target: TNFα trimer (Homo sapiens, UniProt P01375); experiment: Mass spectrometric analysis of compound binding to and stabilisation of TNFα trimer
Protocol: Mass spectrometry was typically performed using a Waters LCT-premier Time-of-Flight mass spectrometer or a Waters SynaptG2 Q-TOF mass spectrometer. Samples were introduced using an Advion Triversa Nanomate nanoflow infusion device which replaces the conventional spectrometer source, sample injection was via an “A” series chip with […] nozzle size at a nominal flow rate of 100 nl/min. Further modifications to the Waters LCT-premier Time-of-Flight mass spectrometer include a customised source cooling device allowing precise control of the source temperature and a commercial pressure regulation device giving precise control over the vacuum conditions in the source region. Together these modifications help retain the TNFα trimer in a native, folded conformation and facilitate the detection of complexes formed with test compounds of weak affinities.
Ions were generated using standard positive ion electrospray conditions resulting in multiple charging of TNFα.
Mass spectrometry is very sensitive to the buffer salts present in the protein sample. Typical buffer salts such as potassium or sodium phosphates have a severely detrimental affect on ionisation. Accordingly protein samples were pre-treated to remove these salts using a Zeba desalt spin column, the protein being exchanged into a mass spectrometry compatible buffer system, typically 50 mM Ammonium Acetate at pH 6.8.
Typically the test compounds were presented as 10 mM DMSO stock solutions such that when they are incubated with TNFα in solution the final DMSO concentration is 5%. […] This is evidenced by the changes in the number of charges acquired by the protein under the various conditions described.
Test compounds were prepared as 10 mM solutions in dimethylsulphoxide (DMSO). Therefore, it was necessary to establish the effect of DMSO on the native TNFα trimer in the absence of a test compound. DMSO was added to an aqueous solution of TNFα trimer to give a final concentration of 5% v/v and the mass spectrum acquired.
The compound of formula (1) was added to a solution containing TNFα and 5% v/v DMSO and the mass spectrum acquired.
Further evidence for the stabilization of the trimeric form of TNFα by the test compounds was obtained from analyzing the samples under harsher ionization conditions that tend to favour breakdown of the native trimeric form into monomers.
Incubation of a library of test compounds, including the compound of formula (1) with TNFα was monitored by mass spectrometry under soft ionization conditions. […] This confirms that the test compounds, including the compound of formula (1), have a different mode of action to known compounds, which stabilize the dimeric form of TNFα.
A species of lower molecular weight (˜473 Da appears to bind at less than 5% occupancy). C87 has a molecular weight of 503 Da.

[2] = target: h-TNFα (Homo sapiens, UniProt P01375); experiment: Monomer exchange in TNFα trimers by mass spectrometry, compound pre-incubated with human TNFα; format: binding; settings: 18 hours; for off-rate from h-TNFα: 1:1 complex with h-TNFα mixed with m-TNFα; for cross species monomer subunit exchange: compound preincubated with h-TNFα, then m-TNFα added
h-TNFα, sequence (P01375 77-233 limits assumed): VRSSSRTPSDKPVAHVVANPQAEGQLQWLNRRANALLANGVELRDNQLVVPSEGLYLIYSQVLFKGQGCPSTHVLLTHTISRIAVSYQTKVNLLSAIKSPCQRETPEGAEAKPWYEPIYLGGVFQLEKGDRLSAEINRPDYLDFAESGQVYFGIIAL
Protocol: Human and mouse homotrimers of TNFα (H3 and M3 respectively) were incubated together and aliquots of the solution monitored by mass spectrometry appearance of the cross species heterotrimers. The mass spectrometric analysis confirmed that monomer exchange between native TNFα trimers was able to occur in solution. The exchange rate was slow and was monitored over a course of 4 hours before full equilibration was achieved (data not shown). The mechanism is unknown, although is it unlikely to involve formation of the dimeric forms as none of these were observed. Monomer exchange is likely to be occurring between pure human and mouse trimers, the mixing of mouse and human trimers simply makes this exchange visible by mass spectrometry.
In a second series of experiments an excess of the compound of formula (1) was incubated with Human TNFα, the excess compound of formula (1) was then removed. Mass Spectral analysis confirmed that a 1:1 complex had been formed between the compound of formula (1) and h-TNFα. Mouse TNFα was now added to this sample which was then subjected to mass spectral analysis over a number of hours. After 18 hours there was no observed change in the composition of the sample. […] In addition, there was no evidence of formation of the M3L species and no evidence of formation of the unligated H3 species.
These two experiments were then repeated with the compound of formula (2) instead of the compound of formula (1). The results when the compound of formula (2) was pre-incubated with h-TNFα to give a 1:1 complex and then mixed with unligated m-TNFα were the same as with the compound of formula (1).

[3] = system: TNFα stimulated neutrophil recruitment into the peritoneal cavity; experiment: Neutrophil recruitment in mice, compound given orally before i.p. hTNFα; format: in vivo, Balb/c mice
Protocol: In a further experiment, mice were treated with hTNFα ([…]) and the compound of formula (1) was administered orally (p.o.).
The compound of formula (1) was made into a suspension in 1% methylcellulose vehicle using a covaris machine.
An anti-human TNFα monoclonal antibody (anti-hTNFα, UCB) was also utilised as a positive control in this study.
Ten male Balb/c mice were used per group except in the group that received anti-hTNFα for which 4 mice were used.
All mice were killed by cervical dislocation two hours post-injection of hTNFα (t=2 h) and the peritoneal cavity was lavaged and neutrophil numbers measured as described above.

[4] = system: activation of NF-κB by TNFα; experiment: HEK-293 NF-κB SEAP reporter gene assay, TNFα stimulus; format: cell-based; settings: Homo sapiens, HEK293; HEK-293 reporter cells, TNFα 0.5 ng/ml
Protocol: (§1) Stimulation of HEK-293 cells by TNF-alpha leads to activation of the NF-kB pathway. The reporter cell line used to determine TNF alpha activity was purchased from Invivogen. HEK-Blue™ CD40L, is a stable transfectant expressing SEAP (secreted alkaline phosphatase) under the control of the IFN-beta minimal promoter fused to 5 NF-kB binding sites. Secretion of SEAP by these cells is stimulated in a concentration dependent manner by TNF-alpha (0.5 ng/ml), IL-1-beta (0.5 ng/ml) and an activating anti-human TNFR1 antibody (300 ng/ml).
Compounds were diluted from 10 mM DMSO stocks (final assay concentration 0.3%) to generate a 10 point 3 fold serial dilution curve (30,000 nM to 2 nM final concentration). They were mixed with stimulating ligand for 1 hour in a 384 well microtitre plate. […] SEAP activity was determined in the supernatant using the colorimetric substrate Quanti-Blue™ (Invivogen).
Percentage inhibitions for compound dilutions were calculated between a DMSO control and maximum inhibition (by excess control compound) and an IC50 calculated using xlfit (4 parameter logistic model) in Activity Base. […]
C87 was preincubated with TNFα for 1 hour prior to the addition to HEK-293 cells stably transfected with SEAP under the control of NFκB. […] The assay was incubated overnight before inhibition was measured compared to 100% blocking by a control compound. […]

[5] = system: activation of NF-κB by activating anti-human TNFR1 antibody; experiment: HEK-293 NF-κB SEAP reporter gene assay, activating TNF-R1 antibody counterscreen; format: cell-based; settings: HEK293, HEK-293 reporter cells, antibody 300 ng/ml
Protocol: as §1
Compounds were diluted from 10 mM DMSO stocks (final assay concentration 0.3%) to generate a 10 point 3 fold serial dilution curve (30,000 nM to 2 nM final concentration). They were mixed with stimulating ligand for 1 hour in a 384 well microtitre plate. Freshly thawed and washed cells were added to the compound/stimulus mixture and further incubated for 18 hours. SEAP activity was determined in the supernatant using the colorimetric substrate Quanti-Blue™ (Invivogen).
Percentage inhibitions for compound dilutions were calculated between a DMSO control and maximum inhibition (by excess control compound) and an IC50 calculated using xlfit (4 parameter logistic model) in Activity Base.
The specific activity of each compound against the TNF-alpha response was compared to that seen with the counterscreens (IL-1beta and anti-human TNFR1 antibody).

TNFα trimer, sequence (P01375 77-233 limits assumed): as above

Row | Compound | stabilisation of trimeric TNFα (charge state envelope) ([1]; 5% v/v DMSO, soft ionisation) | quantity of TNFα monomer detected ([1]; harsher ionization conditions, data not shown) | binding to the monomeric form of TNFα ([1]; soft ionization conditions) | stabilization of the dimeric form of TNFα ([1]; soft ionization conditions) | stoichiometry of binding ([1]; soft ionization conditions) | off-rate from h-TNFα [2] | cross species monomer subunit exchange [2] | reduction of TNFα stimulated neutrophil recruitment into the peritoneal cavity ([3]; 30 mg/kg p.o. 30 minutes before hTNFα 0.03 μg/kg i.p.) | reduction of TNFα stimulated neutrophil recruitment into the peritoneal cavity ([3]; 100 mg/kg p.o. 30 minutes before hTNFα 0.03 μg/kg i.p.) | IC50 [4] | IC50 [5]
1 | Cc1ccc(C)c(Cn2c(C(O)c3ccncc3)nc3ccccc32)c1 (stereo not shown) [Compound (1), [1-(2,5-Dimethylbenzyl)-1H-benzimidazol-2-yl](pyridin-4-yl)methanol] | stabilization of the trimeric TNFα complex over and above that observed in the absence of DMSO | significantly reduced | not observed to bind | no evidence for stabilization | one molecule of the compound of formula (1) per TNFα trimer | no measurable off-rate | no cross species monomer subunit exchange was observed | 49% | 79% |  | 
2 | Cc1ccc(C)c(Cn2c(C(O)c3ccncc3)nc3ccc(-c4cnn(C)c4)cc32)c1 (stereo not shown) [Compound (2), [1-(2,5-Dimethylbenzyl)-6-(1-methyl-1H-pyrazol-4-yl)-1H-benzimidazol-2-yl](pyridin-4-yl)methanol] |  |  |  |  |  | no measurable off-rate | No monomer subunit exchange was observed |  |  | 113 nM | > 30000 nM
